From US7569577B2, “Quinazoline derivatives as tyrosine kinase inhibitors” (Astrazeneca AB, priority 2003, dated 2009)

Assays:
EGFR tyrosine kinase = molecular target: T1, EGFR tyrosine kinase (Homo sapiens, UniProt P00533); experiment: Protein tyrosine kinase phosphorylation assay, Test (a); format: biochemical; settings: ATP at Km concentration; read-out: IC50 (nM) Test (a) (Inhibition of EGFR tyrosine kinase protein phosphorylation)
T1 construct: Recombinant intracellular fragments of EGFR, erbB2 and erbB4; made in house; host or cells: baculovirus/Sf21 insect cells (cleared lysate used)
Description: This test measures the ability of a test compound to inhibit the phosphorylation of a tyrosine containing polypeptide substrate by EGFR, erbB2 or erbB4 tyrosine kinase enzyme.
Recombinant intracellular fragments of EGFR, erbB2 and erbB4 (accession numbers X00588, X03363 and L07868 respectively) were cloned and expressed in the baculovirus/Sf21 system. Lysates were prepared from these cells by treatment with ice-cold lysis buffer (20 mM N-2-hydroxyethylpiperizine-N′-2-ethanesulfonic acid (HEPES) pH 7.5, 150 mM NaCl, 10% glycerol, 1% Triton X-100, 1.5 mM MgCl2, 1 mM ethylene glycol-bis(β-aminoethyl ether) N′,N′,N′,N′-tetraacetic acid (EGTA), plus protease inhibitors and then cleared by centrifugation.
Constitutive kinase activity of these recombinant proteins was determined by their ability to phosphorylate a synthetic peptide (made up of a random co-polymer of Glutamic Acid, Alanine and Tyrosine in the ratio of 6:3:1). Specifically, Maxisorb™ 96-well immunoplates were coated with synthetic peptide (0.2 μg of peptide in a 200 μl phosphate buffered saline (PBS) solution and incubated at 4° C. overnight). Plates were washed in 50 mM HEPES pH 7.4 at room temperature to remove any excess unbound synthetic peptide. EGFR or erbB2 activities were assessed by incubation in peptide coated plates for 20 minutes at room temperature in 100 mM HEPES pH 7.4 at room temperature, adenosine trisphosphate (ATP) at Km concentration for the respective enzyme, 10 mM MnCl2, 0.1 mM Na3VO4, 0.2 mM DL-dithiothreitol (DTT), 0.1% Triton X-100 with test compound in DMSO (final concentration of 2.5%). Reactions were terminated by the removal of the liquid components of the assay followed by washing of the plates with PBS-T (phosphate buffered saline with 0.5% Tween 20).
The immobilised phospho-peptide product of the reaction was detected by immunological methods. Firstly, plates were incubated for 90 minutes at room temperature with anti-phosphotyrosine primary antibodies that were raised in the mouse (4G10 from Upstate Biotechnology). Following extensive washing, plates were treated with Horseradish Peroxidase (HRP) conjugated sheep anti-mouse secondary antibody (NXA931 from Amersham) for 60 minutes at room temperature. After further washing, HRP activity in each well of the plate was measured colorimetrically using 22′-Azino-di-[3-ethylbenzthiazoline sulfonate (6)] diammonium salt crystals (ABTS™ from Roche) as a substrate.
Quantification of colour development and thus enzyme activity was achieved by the measurement of absorbance at 405 nm on a Molecular Devices ThermoMax microplate reader. Kinase inhibition for a given compound was expressed as an IC50 value. […] The range of phosphorylation was calculated from the positive (vehicle plus ATP) and negative (vehicle minus ATP) control values.

KB cells = experiment: EGFR driven KB cell proliferation assay, Test (b); format: cell-based; settings: Homo sapiens, 96 h, EGF 1 ng/ml, 4 days, MTT
Description: This assay measures the ability of a test compound to inhibit the proliferation of KB cells (human naso-pharangeal carcinoma obtained from the American Type Culture Collection (ATCC)).
KB cells were cultured in Dulbecco's modified Eagle's medium (DMEM) containing 10% foetal calf serum, 2 mM glutamine and non-essential amino acids at 37° C. in a 7.5% CO2 air incubator. Cells were harvested from the stock flasks using Trypsin/ethylaminediaminetetraacetic acid (EDTA). Cell density was measured using a haemocytometer and viability was calculated using trypan blue solution before being seeded at a density of 1.25×10^3 cells per well of a 96 well plate in DMEM containing 2.5% charcoal stripped serum, 1 mM glutamine and non-essential amino acids at 37° C. in 7.5% CO2 and allowed to settle for 4 hours.
Following adhesion to the plate, the cells are treated with or without EGF (final concentration of 1 ng/ml) and with or without compound at a range of concentrations in dimethylsulfoxide (DMSO) (0.1% final) before incubation for 4 days. Following the incubation period, cell numbers were determined by addition of 50 μl of 3-(4,5-Dimethylthiazol-2-yl)-2,5-diphenyltetrazolium bromide (MTT) (stock 5 mg/ml) for 2 hours. MTT solution was then tipped off, the plate gently tapped dry and the cells dissolved upon the addition of 100 μl of DMSO.
Absorbance of the solubilised cells was read at 540 nm using a Molecular Devices ThermoMax microplate reader. Inhibition of proliferation was expressed as an IC50 value. […] The range of proliferation was calculated from the positive (vehicle plus EGF) and negative (vehicle minus EGF) control values.

T1 sequence (P00533 669-1210 limits assumed): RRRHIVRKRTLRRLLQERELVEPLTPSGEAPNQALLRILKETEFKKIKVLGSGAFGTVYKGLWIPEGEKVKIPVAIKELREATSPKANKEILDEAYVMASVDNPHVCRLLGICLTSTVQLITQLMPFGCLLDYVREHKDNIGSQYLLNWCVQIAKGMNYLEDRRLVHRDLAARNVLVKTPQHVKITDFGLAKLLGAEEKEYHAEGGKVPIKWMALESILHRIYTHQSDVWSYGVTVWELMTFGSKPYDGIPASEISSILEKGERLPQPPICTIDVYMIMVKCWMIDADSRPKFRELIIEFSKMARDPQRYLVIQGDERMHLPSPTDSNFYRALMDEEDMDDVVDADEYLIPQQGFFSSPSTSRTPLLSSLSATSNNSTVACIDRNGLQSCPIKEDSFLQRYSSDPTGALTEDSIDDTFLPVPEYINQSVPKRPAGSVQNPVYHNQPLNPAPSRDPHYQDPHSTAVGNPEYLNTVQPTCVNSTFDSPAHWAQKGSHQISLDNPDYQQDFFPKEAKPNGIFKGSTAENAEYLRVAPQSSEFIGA

Structure (SMILES)	IC50 (EGFR tyrosine kinase) [nM]	IC50 (KB cells) [nM]	melting point [°C]
COc1cc2c(Nc3cccc(Cl)c3F)ncnc2cc1OC1CCN(C(=O)CO)CC1 [4[1], 2-[4-({4-[3-Chloro-2-fluoroanilino]-6-methoxyquinazolin-7-yl}oxy)piperidin-1-yl]-2-oxoethanol]	30	37	–
COCC(=O)N1CCC(Oc2cc3ncnc(Nc4cccc(Cl)c4F)c3cc2OC)CC1 [Example 3, N-(3-Chloro-2-fluorophenyl)-6methoxy-7-{[1-(methoxyacetyl)piperidin-4-yl]oxy}quinazolin-4-amine]	41	55	–
COc1cc2c(Nc3ccc(Cl)cc3F)ncnc2cc1OC1CCN(C(=O)[C@H](C)O)CC1 (hydrate or solvate) [Example 32]	–	–	149
COc1cc2c(Nc3cccc(Cl)c3F)ncnc2cc1OC1CCN(C(=O)[C@H](C)O)CC1 [Example 4[5], (2S)-1-[4-({4-[3-chloro-2-fluoroanilino]-6-methoxyquinazolin-7-yl}oxy)piperidin-1-yl]-1-oxopropan-2-ol]	–	–	107 to 111
COc1cc2c(Nc3cccc(Cl)c3F)ncnc2cc1O[C@H]1CCCN(C(=O)CN2CCN(C)CC2)C1 [Example 7, N-(3-Chloro-2-fluorophenyl)-6-methoxy-7-({(3S)-1-[(4-methylpiperazin-1-yl)acetyl]piperidin-3-yl}oxy)quinazolin-4-amine]	–	–	120 to 121
COc1cc2c(Nc3cccc(Cl)c3F)ncnc2cc1OC1CCN(C(=O)[C@@H]2CCCN2C)CC1 (hydrate or solvate) [Example 34, N-(3-chloro-2-fluorophenyl)-6-methoxy-7-{[1-(1-methyl-L-prolyl)piperidin-4-yl]oxy}quinazolin-4-amine]	–	–	193
COc1cc2c(Nc3ccc(Cl)cc3F)ncnc2cc1OC1CCN(C(=O)[C@@H](C)O)CC1 (hydrate or solvate) [Example 33, (2R)-1-[4-({4-[4-chloro-2-fluoroanilino]-6-methoxyquinazolin-7-yl}oxy)piperidin-1-yl]-1-oxopropan-2-ol]	–	–	118
COc1cc2c(Nc3cccc(Cl)c3F)ncnc2cc1OC1CCN(C(=O)CCO)CC1 [4[4], 3-[4-({4-[3-Chloro-2-fluoroanilino]-6-methoxyquinazolin-7-yl}oxy)piperidin-1-yl]-3-oxopropan-1-ol]	52	109	–
COc1cc2c(Nc3cccc(Cl)c3F)ncnc2cc1OC1CCN(C(=O)[C@@H](C)O)CC1 [Example 9, (2R)-1-[4-({4-[3-Chloro-2-fluoroanilino]-6-methoxyquinazolin-7-yl}oxy)piperidin-1-yl]-1-oxopropan-2-ol]	–	–	189 to 189.5
COCCC(=O)N1CCC(Oc2cc3ncnc(Nc4cccc(Cl)c4F)c3cc2OC)CC1 [4[3], N-(3-Chloro-2-fluorophenyl)-6-methoxy-7-{[1-(3-methoxypropanoyl)piperidin-4-yl]oxy}quinazolin-4-amine]	65	84	–
COCCOCC(=O)N1CCC(Oc2cc3ncnc(Nc4cccc(Cl)c4F)c3cc2OC)CC1 [Example 2, N-(3-Chloro-2-fluorophenyl)-6-methoxy-7-({1-[(2-methoxyethoxy)acetyl]piperidin-4-yl}oxy)quinazolin-4-amine]	76	112	110 to 111
COc1cc2c(Nc3ccc(F)c(Cl)c3)ncnc2cc1OC1CCN(C(=O)[C@@H](C)O)CC1 (hydrate or solvate) [Example 23, (2R)-1-[4-({4-[3-Chloro-4-fluoroanilino]-6methoxyquinazolin-7-yl}oxy)piperidin-1-yl]-1-oxopropan-2-ol]	–	–	143.6
